Assays:
[1] = biological target: T1, human serum albumin (HSA) (Homo sapiens, UniProt P02768); test: Retention on Chiral-HSA column (HPLC) with different organic modifiers; format: binding; conditions: 25 °C
T1 construct: purchased Chiral Technologies Inc., a subsidiary of Daicel Chemical Industries Ltd
Method: In the next step, different organic modifiers in different percentages were tested. Columns with immobilized proteins, such as Chiral-HSA, are very susceptible to the type and percentage of the organic modifier, which can lead to changes in the tridimensional structure of the protein and can alter the secondary interactions between the analyte and the CSP [30, 31]. According to the instructions of the column manufacturer, the maximum usable organic modifier percentage in the mobile phase was 20% [32]. In our study, the effect of 2-propanol (IPA), 1-propanol (PROP), ethanol (EtOH), methanol (MeOH) and acetonitrile (ACN) on the retention factor (k) and selectivity (α) was investigated. The organic modifiers were used in five different percentages in 10 mM phosphate buffer adjusted to pH 7, using a flow rate of 0.7 mL/min, at 25 °C.
LC–UV analysis was carried out on an Agilent 1100 HPLC system consisting of a quaternary pump, an autosampler, a column compartment, and a DAD detector (Agilent Technologies, Waldbronn, Germany). ChemStation software (ver.: B04 03-SP2) was used for data analysis. UV detection was performed at 230 nm. The APR stock solution was prepared at 1 mg mL^−1 in MeOH, and further dilutions were made with water. An injection volume of 5 μL was used.
The retention factor (k) was calculated using the following equation:(5) k=tr−t0/to where tr is the retention time of the analyte, and t0 is the dead time, determined as the first peak appearance in the chromatogram.
(§1) The separation factor (α) was calculated as follows:(6) α=k2/k1 where k1 and k2 are the retention factors of the first- and second-eluting enantiomer, respectively. The k values were used to calculate the albumin-bound percentage (b%) using Equation (7) by zonal elution chromatography:(7) b%=k/1+k·100

[2] = biological target: T1, human serum albumin (HSA); test: Albumin-bound percentage by zonal elution chromatography on Chiral-HSA column, extrapolated to zero organic modifier; format: binding; conditions: for Bound percentage (b%), Average + SD%: average over five organic modifiers
Excerpt: As it was observed, the decrease of the organic modifier percentage in the mobile phase caused an exponential increase in the retention times of both enantiomers. Therefore, for the calculations, the logarithm of the retention factors was plotted against the organic modifier proportion. With this conversion, a linear relationship was obtained, which could be easily extrapolated to zero for supposedly the best imitation of in vivo conditions. As the intercept of these linear equations, a k value is expressed that can be used to calculate the bound% according to Equation (7).
as §1

[3] = 1-PROP 2% in 10 mM phosphate buffer pH 7, 0.7 mL/min
[4] = 1-PROP 4% in 10 mM phosphate buffer pH 7, 0.7 mL/min
[5] = 1-PROP 6% in 10 mM phosphate buffer pH 7, 0.7 mL/min
[6] = 1-PROP 8% in 10 mM phosphate buffer pH 7, 0.7 mL/min
[7] = 1-PROP 10% in 10 mM phosphate buffer pH 7, 0.7 mL/min
[8] = ACN 2% in 10 mM phosphate buffer pH 7, 0.7 mL/min
[9] = ACN 4% in 10 mM phosphate buffer pH 7, 0.7 mL/min
[10] = ACN 6% in 10 mM phosphate buffer pH 7, 0.7 mL/min
[11] = ACN 8% in 10 mM phosphate buffer pH 7, 0.7 mL/min
[12] = ACN 10% in 10 mM phosphate buffer pH 7, 0.7 mL/min
[13] = EtOH 2% in 10 mM phosphate buffer pH 7, 0.7 mL/min
[14] = EtOH 4% in 10 mM phosphate buffer pH 7, 0.7 mL/min
[15] = EtOH 6% in 10 mM phosphate buffer pH 7, 0.7 mL/min
[16] = EtOH 8% in 10 mM phosphate buffer pH 7, 0.7 mL/min
[17] = EtOH 10% in 10 mM phosphate buffer pH 7, 0.7 mL/min
[18] = IPA 2% in 10 mM phosphate buffer pH 7, 0.7 mL/min
[19] = IPA 4% in 10 mM phosphate buffer pH 7, 0.7 mL/min
[20] = IPA 6% in 10 mM phosphate buffer pH 7, 0.7 mL/min
[21] = IPA 8% in 10 mM phosphate buffer pH 7, 0.7 mL/min
[22] = IPA 10% in 10 mM phosphate buffer pH 7, 0.7 mL/min
[23] = MeOH 2% in 10 mM phosphate buffer pH 7, 0.7 mL/min
[24] = MeOH 4% in 10 mM phosphate buffer pH 7, 0.7 mL/min
[25] = MeOH 6% in 10 mM phosphate buffer pH 7, 0.7 mL/min
[26] = MeOH 8% in 10 mM phosphate buffer pH 7, 0.7 mL/min
[27] = MeOH 10% in 10 mM phosphate buffer pH 7, 0.7 mL/min
[28] = extrapolation to zero percentage of 1-propanol
[29] = extrapolation to zero percentage of ACN
[30] = extrapolation to zero percentage of EtOH
[31] = extrapolation to zero percentage of IPA
[32] = extrapolation to zero percentage of MeOH

T1 sequence (P02768 25-609): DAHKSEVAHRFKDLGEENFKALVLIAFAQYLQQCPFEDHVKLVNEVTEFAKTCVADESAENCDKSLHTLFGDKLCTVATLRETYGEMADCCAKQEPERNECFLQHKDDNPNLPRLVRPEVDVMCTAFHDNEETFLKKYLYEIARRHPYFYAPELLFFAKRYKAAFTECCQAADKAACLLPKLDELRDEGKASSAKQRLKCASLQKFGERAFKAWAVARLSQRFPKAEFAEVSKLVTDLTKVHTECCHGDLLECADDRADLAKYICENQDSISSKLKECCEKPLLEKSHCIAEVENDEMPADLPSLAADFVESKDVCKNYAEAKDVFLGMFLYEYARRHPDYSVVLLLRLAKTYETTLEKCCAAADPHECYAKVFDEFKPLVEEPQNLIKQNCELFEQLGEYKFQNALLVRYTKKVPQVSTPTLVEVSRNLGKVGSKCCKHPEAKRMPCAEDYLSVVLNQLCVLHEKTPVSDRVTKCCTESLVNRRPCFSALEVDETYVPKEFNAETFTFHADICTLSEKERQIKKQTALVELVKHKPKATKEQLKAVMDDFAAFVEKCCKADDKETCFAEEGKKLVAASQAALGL

SMILES	retention factor k [1, 3]	retention factor k [1, 4]	retention factor k [1, 5]	retention factor k [1, 6]	retention factor k [1, 7]	retention factor k [1, 8]	retention factor k [1, 9]	retention factor k [1, 10]	retention factor k [1, 11]	retention factor k [1, 12]	retention factor k [1, 13]	retention factor k [1, 14]	retention factor k [1, 15]	retention factor k [1, 16]	retention factor k [1, 17]	retention factor k [1, 18]	retention factor k [1, 19]	retention factor k [1, 20]	retention factor k [1, 21]	retention factor k [1, 22]	other results
CCOc1cc([C@H](CS(C)(=O)=O)N2C(=O)c3cccc(NC(C)=O)c3C2=O)ccc1OC [R-APR]	8.99	5.96	4.19	1.99	1.32	7.56	3.98	2.80	2.03	1.42	8.72	4.93	3.33	2.83	2.66	8.04	5.00	3.01	2.26	1.45	retention factor k [1, 23]: 13.05; retention factor k [1, 24]: 9.32; retention factor k [1, 25]: 6.05; retention factor k [1, 26]: 4.48; retention factor k [1, 27]: 3.72; Bound percentage (b%), Average + SD% [2]: 92.7 ± 1.5%; Bound percentage (b%) [2, 28]: 94.0%; Bound percentage (b%) [2, 29]: 91.3%; Bound percentage (b%) [2, 30]: 91.4%; Bound percentage (b%) [2, 31]: 92.1%; Bound percentage (b%) [2, 32]: 94.5%
CCOc1cc([C@@H](CS(C)(=O)=O)N2C(=O)c3cccc(NC(C)=O)c3C2=O)ccc1OC [S-APR, apremilast]	13.98	8.04	5.20	2.25	1.32	10.05	4.90	3.09	2.03	1.42	13.84	6.52	4.12	3.20	2.94	13.48	7.62	3.76	2.56	1.45	retention factor k [1, 23]: 19.00; retention factor k [1, 24]: 15.27; retention factor k [1, 25]: 8.07; retention factor k [1, 26]: 5.32; retention factor k [1, 27]: 3.98; Bound percentage (b%), Average + SD% [2]: 95.5 ± 1.3%; Bound percentage (b%) [2, 28]: 96.4%; Bound percentage (b%) [2, 29]: 93.7%; Bound percentage (b%) [2, 30]: 94.8%; Bound percentage (b%) [2, 31]: 95.7%; Bound percentage (b%) [2, 32]: 96.8%

From PMC9916978, “Enantioselective Human Serum Albumin Binding of Apremilast: Liquid Chromatographic, Fluorescence and Molecular Docking Study” (International Journal of Molecular Sciences, 2023)
